Reference: ChEMBL document CHEMBL1158324, “Isolation, structure elucidation, and biological activity of the steroid oligoglycosides and polyhydroxysteroids from the Antarctic starfish Acodontaster conspicuus” (J Nat Prod, 1997)
Active and inactive are the calls of the source. The calls are words filed in the database; no cut-off is given here.

Assays:
Assay type in all cases: functional, organism-based
Acodontaster conspicuus [1] = assay: Antimicrobial activity against Acodontaster conspicuus McM13.3 at 20 degC after 48 hrs by paper disk method
Acodontaster conspicuus [2] = assay: Antimicrobial activity against Acodontaster conspicuus McM32.2 at 20 degC after 48 hrs by paper disk method
Acodontaster conspicuus [3] = assay: Antimicrobial activity against Acodontaster conspicuus McM11.5 at 20 degC after 72 hrs by paper disk method
Acodontaster conspicuus [4] = assay: Antimicrobial activity against Acodontaster conspicuus McM18.1 at 20 degC after 48 hrs by paper disk method

| Structure (SMILES) | Activity (Acodontaster conspicuus [1]) | Activity (Acodontaster conspicuus [2]) | Activity (Acodontaster conspicuus [3]) | Activity (Acodontaster conspicuus [4]) |
| --- | --- | --- | --- | --- |
| CC(/C=C/[C@@H](C)[C@H]1C[C@@H](O)C2=C3C[C@H](O)C4C[C@@H](O)CC[C@]4(C)[C@H]3CC[C@@]21C)CO (some centres not stated) | Active |  |  |  |
| C=C(CC[C@@H](C)[C@H]1C[C@@H](O)[C@@H]2[C@]1(C)CC[C@@H]1[C@@]3(C)CC[C@H](O)[C@H](O)[C@@H]3[C@@H](O)C[C@]12O)C(C)CO[C@@H]1OC[C@@H](O)[C@H](O)[C@H]1O[C@@H]1OC[C@@H](O)[C@H](O)[C@H]1OC (some centres not stated) |  | Active |  |  |
| CC(C)[C@@H](C)C(=O)C[C@@](C)(O)[C@H]1CC[C@H]2[C@@H]3C[C@H](O[C@@H]4O[C@H](C)[C@@H](O)[C@H](O[C@@H]5OC[C@@H](O[C@@H]6O[C@H](CO)[C@H](O)[C@H](O)[C@H]6O[C@@H]6O[C@H](C)[C@@H](O)[C@H](O)[C@H]6O)[C@H](O)[C@H]5O[C@H]5O[C@@H](C)[C@H](O)[C@@H](O)[C@@H]5O)[C@H]4O)[C@H]4C[C@@H](OS(=O)(=O)O)CC[C@]4(C)C3=CC[C@@]21C | inactive | inactive | inactive | inactive |
| CC(C)CC(=O)C[C@@](C)(O)[C@H]1CC[C@H]2[C@@H]3C[C@H](O[C@@H]4O[C@H](C)[C@@H](O)[C@H](O[C@@H]5OC[C@@H](O[C@@H]6O[C@H](CO)[C@H](O)[C@H](O)[C@H]6O[C@@H]6O[C@H](C)[C@@H](O)[C@H](O)[C@H]6O)[C@H](O)[C@H]5O[C@H]5O[C@@H](C)[C@H](O)[C@@H](O)[C@@H]5O)[C@H]4O)[C@H]4C[C@@H](OS(=O)(=O)O)CC[C@]4(C)C3=CC[C@@]21C | inactive | inactive | inactive | inactive |
| CO[C@H]1[C@H](O[C@H]2[C@H](OC[C@@H](C)[C@H](C)/C=C/[C@@H](C)[C@H]3C[C@@H](O)[C@@H]4[C@]3(C)CC[C@@H]3[C@@]5(C)CC[C@H](O)[C@H](O)[C@@H]5[C@@H](O)C[C@]34O)OC[C@@H](O)[C@@H]2O)OC[C@@H](O)[C@@H]1O | Active | Active |  |  |
| C[C@H](/C=C/[C@@H](C)[C@H]1C[C@@H](O)C2=C3C[C@H](O)C4C[C@@H](O)CC[C@]4(C)[C@H]3CC[C@@]21C)[C@H](C)CO (some centres not stated) | Active | Active |  |  |
| CC(C)[C@@H](CCO[C@@H]1OC[C@@H](O)[C@H](O)[C@H]1O[C@@H]1OC[C@@H](O)[C@H](O)[C@H]1O)CC[C@@H](C)[C@H]1C[C@@H](O)[C@@H]2[C@]1(C)CC[C@@H]1[C@@]3(C)CC[C@H](O)[C@H](O)[C@@H]3[C@@H](O)C[C@]12O | Active | Active |  |  |
| CC(C)[C@@H](O)/C=C/[C@@H](C)[C@H]1C[C@@H](O)[C@@H]2[C@]1(C)CC[C@H]1[C@@]2(O)C[C@H](O)C2C[C@@H](O)CC[C@@]21C (some centres not stated) | Active | Active |  |  |
| CC(C)/C(=C/CO[C@@H]1OC[C@@H](O)[C@H](O)[C@H]1O)CC[C@@H](C)[C@H]1C[C@@H](O)C2=C3C[C@H](O)[C@H]4C[C@@H](O)CC[C@]4(C)[C@H]3CC[C@@]21C | Active | Active |  |  |
| CC(C)C[C@@H]1O[C@H]1[C@@](C)(O)[C@H]1CC[C@H]2[C@@H]3C[C@H](O[C@@H]4O[C@H](C)[C@@H](O)[C@H](O[C@@H]5OC[C@@H](O[C@@H]6O[C@H](CO)[C@H](O)[C@H](O)[C@H]6O[C@@H]6O[C@H](C)[C@@H](O)[C@H](O)[C@H]6O)[C@H](O)[C@H]5O[C@H]5O[C@@H](C)[C@H](O)[C@@H](O)[C@@H]5O)[C@H]4O)[C@H]4C[C@@H](OS(=O)(=O)O)CC[C@]4(C)C3=CC[C@]12C | inactive | inactive | inactive | inactive |
| CO[C@H]1[C@H](O[C@H]2[C@H](OC[C@@H](C)[C@H](C)/C=C/[C@@H](C)[C@H]3C[C@@H](O)C4=C5C[C@H](O)[C@H]6C[C@@H](O)CC[C@]6(C)[C@H]5CC[C@@]43C)OC[C@@H](O)[C@@H]2O)OC[C@@H](O)[C@@H]1O |  |  | Active |  |
| CO[C@H]1[C@H](O[C@H]2[C@H](OCC[C@H](CC[C@@H](C)[C@H]3C[C@@H](O)[C@@H]4[C@]3(C)CC[C@@H]3[C@@]5(C)CC[C@H](O)[C@H](O)[C@@H]5[C@@H](O)C[C@]34O)C(C)C)OC[C@@H](O)[C@@H]2O)OC[C@@H](O)[C@@H]1O | Active | Active |  |  |
